In article PMC11364104, “Discovery of SARS-CoV-2 papain-like protease (PL^pro) inhibitors with efficacy in a murine infection model” (Science Advances, 2024):
Like-named read-outs stand apart in the source and are kept apart here.

Experiments:
[1] = test system: SARS-CoV-2 strain USA-WA1/2020; test: dNHBE (human airway epithelial) cell infection model; format: cell-based; conditions: Severe acute respiratory syndrome coronavirus 2, Epithelial cell; dNHBE (human airway epithelial) cells; plaque assay 3 dpi
in vivo = test: in vivo; design: species or system mouse; conditions: for Vd: C57BL6, mouse, iv, 1 mg/kg, read-out: Vdss
Serotonin Transporter = biological target: T1, Serotonin Transporter (Homo sapiens, UniProt P31645); test: CEREP transporters-binding
T1 construct: purchased Eurofins Cerep

Human Thrombin = biological target: T2, Human Thrombin (Homo sapiens, UniProt P00734); test: biochemical
T2 construct: assay run at Reaction Biology Corporation

in vitro = conditions: mouse, plasma
[2] = in vivo, Male C57BL6 mouse, 1.0 mg/kg iv, solution, mean n=2
[3] = in vivo, Male C57BL6 mouse, 10 mg/kg po, solution, mean n=2
[4] = mouse Balb c female, PO 15 mg/kg, suspension
[5] = mouse Balb c female, PO 50 mg/kg, suspension
[6] = mouse Balb c female, PO 150 mg/kg, suspension
[7] = mouse C57BL6 male, IV 1 mg/kg, solution
[8] = mouse C57BL6 male, PO 10 mg/kg, solution
[9] = mouse C57BL6 male, PO 30 mg/kg, solution

T1 sequence (P31645 whole entry): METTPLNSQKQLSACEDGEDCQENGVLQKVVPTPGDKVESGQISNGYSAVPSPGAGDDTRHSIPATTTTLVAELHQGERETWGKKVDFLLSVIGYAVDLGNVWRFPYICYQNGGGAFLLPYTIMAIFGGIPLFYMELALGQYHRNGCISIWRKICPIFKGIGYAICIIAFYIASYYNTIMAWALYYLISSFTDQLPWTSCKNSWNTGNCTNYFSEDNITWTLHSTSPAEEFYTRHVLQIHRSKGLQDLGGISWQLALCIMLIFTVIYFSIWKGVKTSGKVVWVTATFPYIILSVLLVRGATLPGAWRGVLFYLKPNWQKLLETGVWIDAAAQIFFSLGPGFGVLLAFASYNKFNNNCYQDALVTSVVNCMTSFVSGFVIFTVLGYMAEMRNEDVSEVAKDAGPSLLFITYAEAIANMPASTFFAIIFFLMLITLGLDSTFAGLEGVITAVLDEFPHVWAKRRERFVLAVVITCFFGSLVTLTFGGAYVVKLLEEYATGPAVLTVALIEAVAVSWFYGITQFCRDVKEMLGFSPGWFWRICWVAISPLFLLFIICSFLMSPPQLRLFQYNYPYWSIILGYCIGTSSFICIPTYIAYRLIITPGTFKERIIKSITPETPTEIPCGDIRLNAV

With `Cc1ccc(N2CCN(C)CC2)cc1C(=O)NC1(c2cc(-c3cnn(C)c3)nc3ccccc23)CC1` [Compound 4] the EC50 [1] was 13.9 nM, the EC90 [1] was 56.7 nM and the “Oral F” value (in vivo; Male C57BL6 mouse, 10 mg/kg po, solution, mean n=2) was 53.10%. The AUC(0-inf) (in vivo; [2]) was 708 ng·h/mL, the half-life (in vivo; [2]) was 3.29 h and the clearance (in vivo; in vivo, Male C57BL6 mouse, 1.0 mg/kg iv, solution, mean n=2, read-out: CLp) was 23.7 mL/min/kg. It also gave an AUC(0-inf) (in vivo; [3]) of 3760 ng·h/mL, a Cmax (in vivo; [3]) of 862 ng/mL and a half-life (in vivo; [3]) of 2.19 h. The Tmax (in vivo; in vivo, Male C57BL6 mouse, 10 mg/kg po, solution, mean n=2, read-out: Tmax) was 2 h, the Cmax (in vivo; in vivo, mouse Balb c female, PO 15 mg/kg, suspension) was 1140 ng/mL and the Cmax (in vivo; in vivo, mouse Balb c female, PO 50 mg/kg, suspension) was 5410 ng/mL. The Cmax (in vivo; in vivo, mouse Balb c female, PO 150 mg/kg, suspension) was 12800 ng/mL, the Cmax (in vivo; in vivo, mouse C57BL6 male, PO 30 mg/kg, solution) was 1880 ng/mL and the bioavailability (in vivo; male, C57BL6, in vivo, po, 10 mg/kg, mouse (m), read-out: Oral F (%)) was 53.2%. It also gave a Vd (in vivo; male, in vivo, Male C57BL6 mouse, 1.0 mg/kg iv, solution, mean n=2) of 2.13 L/kg, a Vd (in vivo; male, in vivo, mouse (m), intravenous) of 2.12 L/kg and a Vd (in vivo; male, in vivo, mouse C57BL6 male, IV 1 mg/kg, solution) of 2.13 L/kg. For the same molecule, the “% F Method 3 (Dose * AUC Extrap)” value (in vivo; [4]) was 74.8%, the “AUC(0,inf)” value (in vivo; [4]) was 7940 ng·h/mL and the “AUC(0-Tlast)” value (in vivo; [4]) was 7940 ng·h/mL. The T1/2 (in vivo; [4]) was 1.95 h, the Tmax (in vivo; [4]) was 1.25 h and the “% F Method 3 (Dose * AUC Extrap)” value (in vivo; [5]) was 84.0%. The “AUC(0,inf)” value (in vivo; [5]) was 29800 ng·h/mL, the “AUC(0-Tlast)” value (in vivo; [5]) was 29700 ng·h/mL and the T1/2 (in vivo; [5]) was 2.01 h. The Tmax (in vivo; [5]) was 0.375 h, the “% F Method 3 (Dose * AUC Extrap)” value (in vivo; [6]) was 84.0% and the “AUC(0,inf)” value (in vivo; [6]) was 89200 ng·h/mL. For the same molecule, the “AUC(0-Tlast)” value (in vivo; [6]) was 89100 ng·h/mL, the T1/2 (in vivo; [6]) was 2.47 h and the Tmax (in vivo; [6]) was 0.25 h. For the same molecule, the “% of dose in feces” value (in vivo; [7]) was 26.0%, the “AUC(0,inf)” value (in vivo; [7]) was 708 ng·h/mL and the “AUC(0-Tlast)” value (in vivo; [7]) was 706 ng·h/mL. The T1/2 (in vivo; [7]) was 3.29 h, the “% F Method 3 (Dose * AUC Extrap)” value (in vivo; [8]) was 53.1% and the “% of dose in feces” value (in vivo; [8]) was 12.6%. For the same molecule, the “AUC(0,inf)” value (in vivo; [8]) was 3760 ng·h/mL, the “AUC(0-Tlast)” value (in vivo; [8]) was 3760 ng·h/mL and the T1/2 (in vivo; [8]) was 2.19 h. The Tmax (in vivo; [8]) was 2 h, the “% F Method 3 (Dose * AUC Extrap)” value (in vivo; [9]) was 67.4% and the “% of dose in feces” value (in vivo; [9]) was 10.8%. The “AUC(0,inf)” value (in vivo; [9]) was 14300 ng·h/mL, the “AUC(0-Tlast)” value (in vivo; [9]) was 14300 ng·h/mL and the T1/2 (in vivo; [9]) was 2.17 h. For the same molecule, the Tmax (in vivo; [9]) was 2 h, the tolerability (in vivo; mouse, oral, highest dose studied (500 mg/kg)) was “tolerated” and the inhibition at 30 µM (Serotonin Transporter) was 8%. For the same molecule, the IC50 (Human Thrombin) was > 100000 nM and the fraction unbound (in vitro) was 0.093.
